Converted amounts (≈) assume the structure as drawn. Structures can show the parent of a compound that is named as a salt. Where two headings read alike, the source gives them in different places.
What was measured:
[1] = test system: S. aureus IID 670 (Terajima); assay: In vitro antibacterial activity, MIC (standard strain); format: cell-based, Staphylococcus aureus; settings: Staphylococcus aureus, IID670, S. aureus IID 670 (Terajima); 10^6 cells/ml; standard strain; read-out: MIC
S. pyogenes IID 692 = assay: as above; format: cell-based; settings: Streptococcus pyogenes, IID692; S. pyogenes IID 692; 10^6 cells/ml; standard strain; read-out: MIC
[2] = test system: Escherichia coli NIHJ JC-2; assay: as above; format: cell-based; settings: Escherichia coli, NIHJJC2, Escherichia coli NIHJ JC-2; 10^6 cells/ml; standard strain; read-out: MIC
[3] = test system: Proteus vulgaris IFO 3167; assay: as above; format: cell-based; settings: IFO3167; Proteus vulgaris IFO 3167; 10^6 cells/ml; standard strain; read-out: MIC
P. mirabilis IID 994 = assay: as above; format: cell-based; settings: Proteus mirabilis, IID994; P. mirabilis IID 994; 10^6 cells/ml; standard strain; read-out: MIC
[4] = test system: Morganella morganii IID 602; assay: as above; format: cell-based; settings: IID602; Morganella morganii IID 602; 10^6 cells/ml; standard strain; read-out: MIC
[5] = test system: Citrobacter freundii IID 976; assay: as above; format: cell-based; settings: IID976; Citrobacter freundii IID 976; 10^6 cells/ml; standard strain; read-out: MIC
Shigella sonnei IID 969 = assay: as above; format: cell-based; settings: IID969, 10^6 cells/ml
Procedure: Experiment-1 In vitro antibacterial activity
The in vitro antibacterial activity against gram-positive and gram-negative bacteria has been investivated.
The minimum inhibitory concentration (MIC) was determined in accordance with the method recommended by Japan Society of Chemotherapy.

[6] = test system: Serratia marcescens IID 618; assay: as above; format: cell-based; settings: Serratia marcescens, IID618, Serratia marcescens IID 618; 10^6 cells/ml; standard strain; read-out: MIC
[7] = test system: Pseudomonas aeruginosa V-1; assay: as above; format: cell-based; settings: V1; Pseudomonas aeruginosa V-1; 10^6 cells/ml; standard strain; read-out: MIC
P. aeruginosa IFO 12689 = assay: as above; format: cell-based, Pseudomonas aeruginosa; settings: Pseudomonas aeruginosa, IFO12689; P. aeruginosa IFO 12689; 10^6 cells/ml; standard strain; read-out: MIC
[8] = test system: Alcaligenes faecalis 0104002; assay: as above; format: cell-based; settings: Alcaligenes faecalis, 0104002, Alcaligenes faecalis 0104002; 10^6 cells/ml; standard strain; read-out: MIC
[9] = test system: Bacteroides fragilis GM 7000; assay: as above; format: cell-based; settings: GM7000; Bacteroides fragilis GM 7000; 10^6 cells/ml; standard strain; read-out: MIC
B. fragilis 0558 = assay: as above; format: cell-based, Bacteroides fragilis; settings: Bacteroides fragilis, 0558, B. fragilis 0558; 10^6 cells/ml; standard strain; read-out: MIC
C. ramosum = assay: as above; format: cell-based; settings: Thomasclavelia ramosa; C. ramosum; 10^6 cells/ml; standard strain; read-out: MIC
C. difficile I-E = assay: as above; format: cell-based; settings: Clostridioides difficile; C. difficile I-E; 10^6 cells/ml; standard strain; read-out: MIC
S. pneumoniae 24 = assay: In vitro antibacterial activity, MIC (clinical isolates); format: cell-based; settings: Streptococcus pneumoniae
S. pneumoniae 2054 = assay: as above; format: cell-based; settings: Streptococcus pneumoniae; S. pneumoniae 2054; 10^6 cells/ml; clinical isolate; read-out: MIC
S. pneumoniae 2950 = assay: as above; format: cell-based; settings: Streptococcus pneumoniae
S. pyogenes 3107 = assay: as above; format: cell-based; settings: Streptococcus pyogenes
S. pyogenes 4340 = assay: as above; format: cell-based; settings: Streptococcus pyogenes
S. agalactiae 4049 = assay: as above; format: cell-based; settings: Streptococcus agalactiae; S. agalactiae 4049; 10^6 cells/ml; clinical isolate; read-out: MIC
S. agalactiae 4368 = assay: as above; format: cell-based; settings: Streptococcus agalactiae; S. agalactiae 4368; 10^6 cells/ml; clinical isolate; read-out: MIC
S. faecalis 214 = assay: as above; format: cell-based; settings: Enterococcus faecalis; S. faecalis 214; 10^6 cells/ml; clinical isolate; read-out: MIC
S. faecalis 401 = assay: as above; format: cell-based; settings: Enterococcus faecalis; S. faecalis 401; 10^6 cells/ml; clinical isolate; read-out: MIC
E. coli ML4707 = assay: In vivo antibacterial activity against systemic infection in mice; design: species or system mice (ICR-S); settings: for ED50: Escherichia coli, ML4707, mice (ICR-S), oral, an hour after intraperitoneal infection, challenge dose 2.7 x 10^6 ~ 8.8 x 10^6 cfu/mouse, read-out: ED50 E. coli ML4707; for activity against gram-negative bacterial infections compared with the reference compounds: systemic infection in mice, result in words
Procedure: Experiment-2 In vivo antibacterial activity against systemic infection in mice (ICR-S)
The infections were produced by intraperitoneal injection of a suspension of the bacterial culture corresponding to the germ studied. The products were administered orally at an hour after the infection.

M. pneumoniae Mac. = assay: In vitro antibacterial activity against Mycoplasma, MIC; format: cell-based; settings: Mycoplasmoides pneumoniae, 120 h; M. pneumoniae Mac.; no visible growth after incubation for 5 days; read-out: MIC
Description: Experiment-3 In vitro antibacterial activity against Mycoplasma

[10] = S. pneumoniae 24, 10^6 cells/ml, clinical isolate, read-out: MIC
[11] = S. pneumoniae 2950, 10^6 cells/ml, clinical isolate, read-out: MIC
[12] = S. pyogenes 3107, 10^6 cells/ml, clinical isolate, read-out: MIC
[13] = S. pyogenes 4340, 10^6 cells/ml, clinical isolate, read-out: MIC

Structure (SMILES): CCNCC1CCN(c2c(F)cc3c(=O)c(C(=O)O)cn(C4CC4)c3c2F)C1 (stereo not drawn) [Example 2, l-Cyclopropyl-7-(3-ethylaminomethyl-l-pyrrolidinyl)-6,8-difluoro-l,4-dihydro-4-oxo-3-quinolinecarboxylic acid hydrochloride]
- MIC [1]: 0.025 µg/mL
- MIC (S. pyogenes IID 692): 0.2 µg/mL
- MIC [2]: 0.025 µg/mL
- MIC [3]: 0.025 µg/mL
- MIC (P. mirabilis IID 994): 0.05 µg/mL
- MIC [4]: 0.1 µg/mL
- MIC [5]: 0.05 µg/mL
- MIC (Shigella sonnei IID 969): 0.025 µg/mL
- MIC [6]: 0.1 µg/mL
- MIC [7]: 0.78 µg/mL
- MIC (P. aeruginosa IFO 12689): 1.56 µg/mL
- MIC [8]: 0.1 µg/mL
- MIC [9]: 1.56 µg/mL
- MIC (B. fragilis 0558): 0.78 µg/mL
- MIC (C. ramosum): 0.78 µg/mL
- MIC (C. difficile I-E): 0.78 µg/mL
- MIC (S. pneumoniae 24; [10]): 0.05 µg/mL
- MIC (S. pneumoniae 2054): 0.1 µg/mL
- MIC (S. pneumoniae 2950; [11]): 0.1 µg/mL
- MIC (S. pyogenes 3107; [12]): 0.05 µg/mL
- MIC (S. pyogenes 4340; [13]): 0.1 µg/mL
- MIC (S. agalactiae 4049): 0.1 µg/mL
- MIC (S. agalactiae 4368): 0.1 µg/mL
- MIC (S. faecalis 214): 0.2 µg/mL
- MIC (S. faecalis 401): 0.2 µg/mL
- ED50 (E. coli ML4707): 0.8 mg/kg
- activity against gram-negative bacterial infections compared with the reference compounds (E. coli ML4707): greater activity against gram-negative bacterial infections than the reference compounds
- MIC (M. pneumoniae Mac.): 0.05 µg/mL

Structure (SMILES): CCNCC1CCN(c2c(F)cc3c(=O)c(C(=O)O)cn(C4CC4)c3c2Cl)C1 (stereo not drawn) [Example 13, 8-Chloro-l-cyclorpropyl-6-fluoro-1,4-dihydro-7-(3-ethylaminomethyl-l-pyrrolidinyl)-4-oxo-3-quinolinecarboxylic acid]
- MIC [1]: 0.025 µg/mL (≈ 0.0613 µM)
- MIC (S. pyogenes IID 692): 0.05 µg/mL (≈ 0.123 µM)
- MIC [2]: 0.0125 µg/mL (≈ 0.0306 µM)
- MIC [3]: 0.025 µg/mL (≈ 0.0613 µM)
- MIC (P. mirabilis IID 994): 0.05 µg/mL (≈ 0.123 µM)
- MIC [4]: 0.1 µg/mL (≈ 0.245 µM)
- MIC [5]: 0.05 µg/mL (≈ 0.123 µM)
- MIC (Shigella sonnei IID 969): 0.025 µg/mL (≈ 0.0613 µM)
- MIC [6]: 0.1 µg/mL (≈ 0.245 µM)
- MIC [7]: 0.78 µg/mL (≈ 1.91 µM)
- MIC (P. aeruginosa IFO 12689): 1.56 µg/mL (≈ 3.82 µM)
- MIC [8]: 0.39 µg/mL (≈ 0.956 µM)
- MIC [9]: 0.1 µg/mL (≈ 0.245 µM)
- MIC (B. fragilis 0558): 0.1 µg/mL (≈ 0.245 µM)
- MIC (C. ramosum): 0.2 µg/mL (≈ 0.49 µM)
- MIC (S. pneumoniae 24; [10]): 0.05 µg/mL (≈ 0.123 µM)
- MIC (S. pneumoniae 2054): 0.05 µg/mL (≈ 0.123 µM)
- MIC (S. pyogenes 3107; [12]): 0.05 µg/mL (≈ 0.123 µM)
- MIC (S. pyogenes 4340; [13]): 0.05 µg/mL (≈ 0.123 µM)
- MIC (S. agalactiae 4049): 0.05 µg/mL (≈ 0.123 µM)
- MIC (S. agalactiae 4368): 0.025 µg/mL (≈ 0.0613 µM)
- MIC (S. faecalis 214): 0.1 µg/mL (≈ 0.245 µM)
- MIC (S. faecalis 401): 0.1 µg/mL (≈ 0.245 µM)
- ED50 (E. coli ML4707): 0.7 mg/kg
- activity against gram-negative bacterial infections compared with the reference compounds (E. coli ML4707): greater activity against gram-negative bacterial infections than the reference compounds
- MIC (M. pneumoniae Mac.): 0.05 µg/mL (≈ 0.123 µM)

Structure (SMILES): CCn1cc(C(=O)O)c(=O)c2cc(F)c(N3CCNCC3)cc21 [NFLX, Norfloxacin, reference compound]
- MIC [1]: 0.78 µg/mL (≈ 2.44 µM)
- MIC (S. pyogenes IID 692): 3.13 µg/mL (≈ 9.8 µM)
- MIC [2]: 0.025 µg/mL (≈ 0.0783 µM)
- MIC [3]: 0.025 µg/mL (≈ 0.0783 µM)
- MIC (P. mirabilis IID 994): 0.05 µg/mL (≈ 0.157 µM)
- MIC [4]: 0.05 µg/mL (≈ 0.157 µM)
- MIC [5]: 0.05 µg/mL (≈ 0.157 µM)
- MIC (Shigella sonnei IID 969): 0.05 µg/mL (≈ 0.157 µM)
- MIC [6]: 0.05 µg/mL (≈ 0.157 µM)
- MIC [7]: 0.78 µg/mL (≈ 2.44 µM)
- MIC (P. aeruginosa IFO 12689): 0.78 µg/mL (≈ 2.44 µM)
- MIC [8]: 3.13 µg/mL (≈ 9.8 µM)
- MIC [9]: 25 µg/mL (≈ 78.3 µM)
- MIC (B. fragilis 0558): 25 µg/mL (≈ 78.3 µM)
- MIC (C. ramosum): 50 µg/mL (≈ 157 µM)
- MIC (C. difficile I-E): 50 µg/mL (≈ 157 µM)
- MIC (S. pneumoniae 24; 24): 12.5 µg/mL (≈ 39.1 µM)
- MIC (S. pneumoniae 2054): 6.25 µg/mL (≈ 19.6 µM)
- MIC (S. pneumoniae 2950; 2950): 12.5 µg/mL (≈ 39.1 µM)
- MIC (S. pyogenes 3107; 3107): 1.56 µg/mL (≈ 4.89 µM)
- MIC (S. pyogenes 4340; 4340): 1.56 µg/mL (≈ 4.89 µM)
- MIC (S. agalactiae 4049): 6.25 µg/mL (≈ 19.6 µM)
- MIC (S. agalactiae 4368): 3.13 µg/mL (≈ 9.8 µM)
- MIC (S. faecalis 214): 3.13 µg/mL (≈ 9.8 µM)
- MIC (S. faecalis 401): 6.25 µg/mL (≈ 19.6 µM)
- MIC (M. pneumoniae Mac.): 3.13 µg/mL (≈ 9.8 µM)

Structure (SMILES): CNCC1CCN(c2c(F)cc3c(=O)c(C(=O)O)cn(C4CC4)c3c2F)C1 (stereo not drawn) [Example 8, 1-Cyclopropyl-6,8-difluoro-1,4-dihydro-7-(3-methylaminomethyl-l-pyrrolidinyl)-4-oxo-3-quinolinecarboxylic acid hydrochloride]
- MIC [1]: 0.025 µg/mL
- MIC (S. pyogenes IID 692): 0.05 µg/mL
- MIC [2]: 0.025 µg/mL
- MIC [3]: 0.025 µg/mL
- MIC (P. mirabilis IID 994): 0.05 µg/mL
- MIC [4]: 0.2 µg/mL
- MIC [5]: 0.025 µg/mL
- MIC (Shigella sonnei IID 969): 0.0125 µg/mL
- MIC [6]: 0.2 µg/mL
- MIC [7]: 0.78 µg/mL
- MIC (P. aeruginosa IFO 12689): 1.56 µg/mL
- MIC [8]: 0.39 µg/mL
- MIC [9]: 0.78 µg/mL
- MIC (B. fragilis 0558): 0.39 µg/mL
- MIC (C. ramosum): 0.78 µg/mL
- MIC (C. difficile I-E): 1.56 µg/mL
- MIC (S. pneumoniae 24; [10]): 0.05 µg/mL
- MIC (S. pneumoniae 2054): 0.05 µg/mL
- MIC (S. pneumoniae 2950; [11]): 0.1 µg/mL
- MIC (S. pyogenes 3107; [12]): 0.05 µg/mL
- MIC (S. pyogenes 4340; [13]): 0.05 µg/mL
- MIC (S. agalactiae 4049): 0.2 µg/mL
- MIC (S. agalactiae 4368): 0.1 µg/mL
- MIC (S. faecalis 214): 0.05 µg/mL
- MIC (S. faecalis 401): 0.1 µg/mL
- ED50 (E. coli ML4707): 1.9 mg/kg
- MIC (M. pneumoniae Mac.): 0.05 µg/mL

From patent EP0183129A1, “Quinolonecarboxylic acid derivatives” (KYORIN PHARMACEUTICAL CO., LTD., priority 1984, dated 1986)
